# Experimental data taken from US12377067B2, “Methods of treating PAH with combinations of ralinepag and other agents” (Arena Pharmaceuticals, Inc., priority 2016, dated 2025).
# Where two headings read alike, the source gives them in different places.
# How the values were obtained:
# [1] = tested on: human PASMCs from PAH patients; experiment: Cell proliferation assay (MTS), serum-induced growth; format: cell-based; conditions: for Emax: read-out: Emax (% Inhibition); for times more potent than ralinepag alone: individual fits (Table 1)
# [2] = 22-week randomized, double-blind, placebo-controlled clinical trial; format: in vivo, patients
# Method: A 22-week randomized, double-blind, placebo-controlled study with a dose titration period of up to 9 weeks was conducted. Sixty-one patients were randomized 2:1 ralinepag to placebo. Right Heart Catheterization (RHC) measurements were obtained prior to study Day 1 of the dose titration period and at Week 22. The following values were obtained and recorded: pulmonary artery pressure (PAP) (systolic, diastolic, and mean), heart rate (HR), right atrial pressure (RAP), pulmonary capillary wedge pressure (PCWP) right ventricular pressure (RVP) and cardiac output (CO), pulmonary vascular resistance (PVR), arterial and mixed venous oxygen saturation (FiO2) (if applicable). Systemic vascular resistance (SVR) was estimated from blood pressure measurements. All patients were receiving background PAH treatment with an endothelin receptor antagonist, phosphodiesterase type-5-inhibitor, or soluble guanylate cyclase activator, alone or in combination.
# The primary efficacy endpoint for the study was change from baseline in PVR after 22 weeks of treatment. Additional analyses included change from baseline in 6 MWD after 22 weeks of treatment, hemodynamics, and safety and tolerability. Ralinepag was administered as a capsule in 0.01, 0.02, 0.03, 0.04, and 0.10 mg dose strengths.
# The starting dose of ralinepag was 0.01 mg twice daily. The dose of ralinepag was titrated according to patient tolerability. If the initial dose was tolerated (0.01 mg twice daily), then the dose was increased once a week in the following fashion: 0.02 mg twice daily, 0.03 mg twice daily, 0.04 mg twice daily, 0.06 mg twice daily, 0.08 mg, 0.1 mg twice daily, 0.2 mg twice daily and 0.3 mg twice daily. The dose was optionally escalated to a possible maximum total daily dose of 0.6 mg (0.3 mg twice daily), pending tolerability.
# [3] = tested on: human PASMCs from PAH patients; experiment: Cell proliferation assay (MTS), serum-induced growth; format: cell-based
# Method: Primary cell lines of distal PASMCs from PAH patients were derived from explanted lungs as previously described (Falcetti et al., 2010; Bubb et al., 2014). These cells have an abnormal proliferative capacity when grown in culture (Zhang et al., 2007; Falcetti et al., 2010). Frozen cells were revived and grown in human smooth muscle basal medium-2 (SMBM; Lonza, Slough, UK) supplemented with 9% fetal bovine serum (FBS) at 37° C. in a humidified atmosphere of 5% CO2. After reaching confluence, cells were washed with phosphate-buffered saline (PBS) and treated with trypsin-EDTA for further passage. Only cells between passages 3 and 10 were used for experiments.
# Comparative concentration-dependent effects of IP receptor agonists on cell proliferation were assessed on human PASMCs derived from PAH patients. Cells were seeded onto 96-well plates at a density of 1×10^4 cells/ml and grown at 37° C. in a humidified CO2 incubator in human smooth muscle basal medium-2 (SMBM; Lonza) containing 9% FBS and penicillin-streptomycin (Pen/Strep; 50 units/ml). After 24 hours, cells were growth arrested by incubating for 48 hours in fresh media containing no added serum. Media was then subsequently removed, replaced with human SMBM containing 9% serum with or without 0.1% DMSO in the absence and presence of the IP receptor agonist (either ralinepag, iloprost, treprostinil or MRE-269) and cells treated with the IP receptor agonist for 4 days over the concentration range ([…]). Responses were directly compared in cells containing the IP receptor antagonist, RO-1138452 (1 μM), which was added to cells 30-60 minutes prior to the addition of the IP agonist and remained throughout the experiment. Cells incubated with no added serum over the same time period (4 days) acted as the time control.
# Cell proliferation was obtained using an MTS proliferation kit (Promega), a colorimetric method for determining the number of viable cells which is based on the cleavage of the tetrazolium salt MTS to formazan by cellular mitochondrial dehydrogenases. An increase in cell number leads to a proportional increase in the amount of formazan dye formed which is quantified by measuring the absorbance of the dye solution at 490 nm. In each case background absorbance was corrected by subtracting the average absorbance from the “no cell” control wells from all other absorbance values.
# Cell proliferation was then normalized to the growth response induced by FBS alone, which was taken as the FBS response minus the time control (=100% growth at 4 days). Growth responses induced in presence of solvent±drugs is shown as % change in cell proliferation relative to the FBS response alone in all figures.
# All data are presented as mean±standard error of mean (S.E.M) of at least 5 observations. Agonist log-concentration curves were constructed and fitted using the non-linear fitting routine in GraphPad Prism 4 or 6 (San Diego, Calif., USA). The concentration of agonist causing 50% of the maximal response (Emax) was expressed as the negative log (pEC50) and the mean EC50 calculated. P values <0.05 are considered statistically significant.
# [4] = Homo sapiens, PASMC, 96 h, ralinepag alone or + 100 nM drug, from individual fits, 9% FBS + 0.1% DMSO, 4 days
# [5] = in the presence of 100 nM riociguat
compound,measurement,setting,value
"O=C(O)COC[C@H]1CC[C@H](COC(=O)N(c2ccccc2)c2ccc(Cl)cc2)CC1 [ralinepag, 2-(((1r,4r)-4-(((4-chlorophenyl)(phenyl)carbamoyloxy)methyl)cyclohexyl)methoxy)acetic acid]",inhibition at 0.001 µM,"[1]; Homo sapiens, PASMC, 1 nM ralinepag in the presence of 100 nM sildenafil",27%
same,inhibition at 0.01 µM,"[1]; Homo sapiens, PASMC, 10 nM ralinepag combined with 100 nM riociguat",45%
same,inhibition at 10 µM,"[1]; Homo sapiens, PASMC, 10 μM ralinepag in the presence of 100 nM sildenafil",56%
same,inhibition at 10 µM,"[1]; Homo sapiens, PASMC, 10 μM ralinepag in the presence of 100 nM treprostinil",69%
same,EC50,"[1]; Homo sapiens, PASMC, 96 h, log EC50 printed with negative sign, ralinepag alone or + 100 nM drug, from individual fits, 9% FBS + 0.1% DMSO, 4 days, read-out: Log EC50 (n = 5) (converted)",25.1 nM
same,EC50,"[1]; Homo sapiens, PASMC, 96 h, log EC50 printed with negative sign, ralinepag alone or + 100 nM drug, from mean fits, 9% FBS + 0.1% DMSO, 4 days, read-out: Log EC50 (n = 5) (converted)",44.7 nM
same,Emax,[1]; [4],58.2 ± 4.1%
same,EC50,"[1]; Homo sapiens, PASMC, 96 h, ralinepag alone or + 100 nM drug, from mean fits, 9% FBS + 0.1% DMSO, 4 days, read-out: EC50",44 nM
same,Emax,"[1]; Homo sapiens, PASMC, 96 h, ralinepag alone or + 100 nM drug, from mean fits, 9% FBS + 0.1% DMSO, 4 days",59.6 ± 17.3%
same,EC50,"[1]; Homo sapiens, PASMC, ralinepag in the presence of 100 nM sildenafil, individual fits, read-out: EC50",5 nM
same,dose of ralinepag at which cell proliferation was inhibited,[1]; combined with 100 nM macitentan,0.1 nM
same,dose of ralinepag at which significant inhibition of cell growth occurred,[1]; combined with 100 nM treprostinil,0.1 nM
same,fold lower dose of ralinepag giving significant inhibition of cell growth,[1]; combined with 100 nM treprostinil vs ralinepag alone,10 fold
same,antiproliferative effect compared to ralinepag alone,"[1]; in the presence of 100 nM bosentan, mean data",not more effective
same,antiproliferative effect compared to ralinepag alone,"[1]; in the presence of 100 nM macitentan, mean data",not significantly more effective
same,fold lower dose of ralinepag giving significant inhibition of cell growth,[1]; in the presence of 100 nM riociguat vs ralinepag alone,100 fold
same,antiproliferative effect compared to ralinepag alone,"[1]; in the presence of 100 nM riociguat, 0.01-10,000 nM ralinepag, mean data",significantly more effective at 10 nM and above
same,times more potent than ralinepag alone,[1]; [5],~2.5 times
same,potency enhancement,"[1]; in the presence of 100 nM riociguat, mean fits (Table 2)",8 fold
same,antiproliferative effect compared to ralinepag alone,"[1]; in the presence of 100 nM sildenafil, 0.01-10,000 nM ralinepag","significantly (P<0.001, two-way ANOVA) more effective"
same,times more potent than ralinepag alone,[1]; in the presence of 100 nM sildenafil,~5 times
same,maximum response compared to ralinepag alone,[1]; in the presence of riociguat or treprostinil (100 nM),significantly greater maximum response
same,concentration at which ralinepag started to significantly inhibit cell proliferation,"[1]; ralinepag alone, not lowered by 100 nM bosentan",InM
same,6-minute walk distance (6MWD),[2]; after 22 weeks,numerical improvement
same,change from baseline in pulmonary vascular resistance (PVR),"[2]; after 22 weeks, compared to placebo, on background PAH treatment",statistically significant change from baseline
same,adverse events,"[2]; human, in vivo",consistent with other prostacyclin treatments
same,inhibition at 0.001 µM,"[3]; Homo sapiens, PASMC, 1 nM ralinepag alone",14%
same,inhibition at 0.01 µM,"[3]; Homo sapiens, PASMC, 10 nM ralinepag in the presence of 100 nM bosentan",21%
same,inhibition at 10 µM,"[3]; Homo sapiens, PASMC, 10 μM ralinepag alone (highest dose tested)",50%
same,inhibition at 0.1 µM,"[3]; Homo sapiens, PASMC, 96 h, drug alone at 100 nM, compared to FBS and DMSO, 4 days",28%
same,EC50,[3]; [4],25 nM
same,EC50,"[3]; Homo sapiens, PASMC, ralinepag in the presence of 100 nM riociguat, individual fits",10 nM
same,antiproliferative response in the presence of an IP receptor antagonist,[3]; IP receptor antagonist RO-1138452 (1 μM),completely inhibited
same,maximal effect compared with treprostinil,[3]; cell proliferation assay,weaker maximal effects
same,fold lower dose of ralinepag inhibiting cell proliferation,[3]; combined with 100 nM macitentan vs ralinepag alone,10 fold
same,IP receptor dependence of the effect,[3]; cyclic AMP and cell proliferation assays in human PASMCs from PAH patients,selective IP receptor agonists
same,dose of ralinepag at which significant inhibition of cell growth occurred,[3]; [5],10 pM
same,potency enhancement,"[3]; in the presence of 100 nM sildenafil, mean fits (Table 2)",8 fold
same,antiproliferative effect compared to ralinepag alone,"[3]; in the presence of 100 nM treprostinil, entire concentration range, mean data",more effective in the presence of treprostinil
same,fold more antiproliferation effects than MRE-269,[3]; ralinepag vs MRE-269,10 fold
